The source made the active and inactive calls. No cut-off for these calls is given here.
Key:
[1] = Cytotoxicity against BALB/c mouse splenocytes assessed as [3H]-thymidine incorporation after 24 hrs by beta-radiation counting analysis relative to control; assay type: cell-based; conditions: Splenocyte
Plasmodium falciparum [2] = test: Antimicrobial activity against erythrocytic stage of chloroquine-resistant Plasmodium falciparum W2 infected in human erythrocytes assessed as [3H]hypoxanthine incorporation after 24 hrs by beta-radiation counting analysis; assay type: functional, organism-based
[3] = Inhibition of beta-hematin formation at 2.5 mM after 24 hrs by spectrophotometry; assay type: physicochemical; conditions: 2500 µM
Plasmodium falciparum [4] = test: Antimicrobial activity against ring stage chloroquine-resistant Plasmodium falciparum W2 infected in human erythrocytes assessed as inhibition of schizont stage parasite growth at 0.5 to 1 uM after 48 hrs by light microscopy; assay type: functional, organism-based
[5] = Cytotoxicity against human erythrocytes assessed as hemolysis at 25 uM after 1 hr by spectrophotometry; assay type: cell-based; conditions: erythrocyte
Entamoeba histolytica [6] = test: Antiprotozoal activity against Entamoeba histolytica HM-1:IMSS trophozoites after 72 hrs by microdilution method; assay type: functional, organism-based
Plasmodium falciparum [7] = test: Antimicrobial activity against erythrocytic stage of chloroquine-resistant Plasmodium falciparum W2 infected in human erythrocytes assessed as [3H]hypoxanthine incorporation at 1 ug/ml after 24 hrs by beta-radiation counting analysis; assay type: functional
Entamoeba histolytica [8] = test: Ratio of metronidazole IC50 to compound IC50 for Entamoeba histolytica HM-1:IMSS trophozoites; assay type: functional
[9] = Selectivity index, ratio of IC50 for BALB/c mouse splenocytes to IC50 for Entamoeba histolytica HM-1:IMSS trophozoites
[10] = Plasmodium falciparum, W2, read-out: IC50

Structure (SMILES) | IC50 [1] [µM] | IC50 (Plasmodium falciparum [2]; [10]) [µM] | IC50 (Entamoeba histolytica [6]) [µM] | inhibition at 1 µg/mL (Plasmodium falciparum [7]) [%] | other results
O[C@@H](c1cc(C(F)(F)F)nc2c(C(F)(F)F)cccc12)[C@H]1CCCCN1 (relative stereo) [(S,R)-MEFLOQUINE] | 9.5 | 0.04 | – | – | –
O=C(CCN1CCN(c2ccnc3cc(Cl)ccc23)CC1)N/N=C/c1ccccc1O | 11.5 | 0.33 | 25.6 | 98.9 | inhibition (INH) [3]: 83.2%; Activity (Plasmodium falciparum [4]): Active; Activity [5]: Non-toxic
COc1cc(/C=N/NC(=O)CCN2CCN(c3ccnc4cc(Cl)ccc34)CC2)c(Br)c(OC)c1OC | 9.6 | – | 3.7 | 42.9 | IC50 (Plasmodium falciparum [2]): Not Active
O=C(CCN1CCN(c2ccnc3cc(Cl)ccc23)CC1)N/N=C/c1ccc2c(c1)OCO2 | – | – | > 100 | 27.8 | –
CCOC(OCC)c1ccc(/C=N/NC(=O)CCN2CCN(c3ccnc4cc(Cl)ccc34)CC2)cc1 | – | – | > 100 | 71.7 | –
O=C(CCN1CCN(c2ccnc3cc(Cl)ccc23)CC1)N/N=C/c1ccccc1C(F)(F)F | – | – | 8.1 | 59.6 | –
CC(C)Oc1ccc(/C=N/NC(=O)CCN2CCN(c3ccnc4cc(Cl)ccc34)CC2)cc1 | 3.6 | 0.8 | 5.3 | 98 | –
Cc1ccc(/C=N/NC(=O)CCN2CCN(c3ccnc4cc(Cl)ccc34)CC2)cc1 | – | – | 8.1 | 81.4 | –
O=C(CCN1CCN(c2ccnc3cc(Cl)ccc23)CC1)N/N=C/c1ccccc1Cl | 10.8 | 0.78 | 12.3 | 97.9 | inhibition (INH) [3]: 87.3%; Activity [5]: Non-toxic
O=C(CCN1CCN(c2ccnc3cc(Cl)ccc23)CC1)N/N=C/c1ccc(Cl)cc1 | 0.2 | 1.4 | 87.2 | 98.4 | –
CN(C)c1ccc(/C=N/NC(=O)CCN2CCN(c3ccnc4cc(Cl)ccc34)CC2)cc1 | > 100 | 1.3 | 15.2 | 98 | inhibition (INH) [3]: 94.2%; Activity [5]: Non-toxic
CCc1ccc(/C=N/NC(=O)CCN2CCN(c3ccnc4cc(Cl)ccc34)CC2)cc1 | – | – | 11.1 | 97.8 | –
O=C(CCN1CCN(c2ccnc3cc(Cl)ccc23)CC1)N/N=C/c1cccc([N+](=O)[O-])c1 | – | – | 12.6 | 19.9 | –
COc1cc(/C=N/NC(=O)CCN2CCN(c3ccnc4cc(Cl)ccc34)CC2)ccc1OC(C)C | 8.8 | 4.5 | 15.5 | 98.6 | inhibition (INH) [3]: 15.7%; Activity [5]: Non-toxic
COc1ccc(/C=N/NC(=O)CCN2CCN(c3ccnc4cc(Cl)ccc34)CC2)cc1OC | – | – | 11.6 | 98.4 | –
CCOc1ccccc1/C=N/NC(=O)CCN1CCN(c2ccnc3cc(Cl)ccc23)CC1 | – | – | > 100 | 28.1 | –
COc1cc(/C=N/NC(=O)CCN2CCN(c3ccnc4cc(Cl)ccc34)CC2)cc(Br)c1O | – | – | 20.5 | 41.5 | IC50 (Plasmodium falciparum [2]): Not Active
CCOC(=O)COc1ccc(/C=N/NC(=O)CCN2CCN(c3ccnc4cc(Cl)ccc34)CC2)cc1OC | – | – | > 100 | 71.7 | –

Structure (SMILES) | IC50 [1] [µM] | IC50 (Plasmodium falciparum [2]; [10]) [µM] | IC50 (Entamoeba histolytica [6]) [µM] | inhibition at 1 µg/mL (Plasmodium falciparum [7]) [%] | other results
CCN(CC)CCCC(C)Nc1ccnc2cc(Cl)ccc12 (configuration not stated) [CHLOROQUINE] | – | – | – | – | inhibition (INH) [3]: 87.1%
O=C(CCN1CCN(c2ccnc3cc(Cl)ccc23)CC1)N/N=C/c1ccc([N+](=O)[O-])cc1 | 12.1 | – | 0.95 | 38.4 | –
NNC(=O)CCN1CCN(c2ccnc3cc(Cl)ccc23)CC1 | > 100 | 41.7 | – | 74.1 | inhibition (INH) [3]: 21.7%
O=C(CCN1CCN(c2ccnc3cc(Cl)ccc23)CC1)N/N=C/c1ccc(O)cc1 | – | – | > 100 | 80.6 | –
COc1ccc(/C=N/NC(=O)CCN2CCN(c3ccnc4cc(Cl)ccc34)CC2)cc1 | – | – | 19.7 | 43 | –
O=C(CCN1CCN(c2ccnc3cc(Cl)ccc23)CC1)N/N=C/c1ccccc1[N+](=O)[O-] | – | – | 11.3 | 73.1 | –
CCOc1ccc(/C=N/NC(=O)CCN2CCN(c3ccnc4cc(Cl)ccc34)CC2)cc1 | – | – | 12 | 14.9 | –
O=C(CCN1CCN(c2ccnc3cc(Cl)ccc23)CC1)N/N=C/c1c[nH]c2ccccc12 | 5.7 | 3.3 | 9.6 | 81.5 | inhibition (INH) [3]: 43.3%; Activity [5]: Non-toxic
COc1cc(/C=N/NC(=O)CCN2CCN(c3ccnc4cc(Cl)ccc34)CC2)cc(OC)c1OC | – | – | 12.4 | 47.4 | –
O=C(CCN1CCN(c2ccnc3cc(Cl)ccc23)CC1)N/N=C/c1cc(Br)c(O)c(Br)c1 | – | – | 6.6 | 28 | IC50 (Plasmodium falciparum [2]): Not Active
Cc1ncc([N+](=O)[O-])n1CCO [METRONIDAZOLE] | 5.4 | – | 1.5 | – | –
CC(C)c1ccc(/C=N/NC(=O)CCN2CCN(c3ccnc4cc(Cl)ccc34)CC2)cc1 | 7.9 | 1.7 | 17.1 | 97.5 | inhibition (INH) [3]: 94%; Activity [5]: Non-toxic
O=C(CCN1CCN(c2ccnc3cc(Cl)ccc23)CC1)N/N=C/c1ccccc1 | 0.3 | 0.2 | 6.6 | 93.3 | –
COc1cc(/C=N/NC(=O)CCN2CCN(c3ccnc4cc(Cl)ccc34)CC2)ccc1O | 9.4 | 2.1 | 21.3 | 99.1 | inhibition (INH) [3]: 50.7%; Activity [5]: Non-toxic
O=C(CCN1CCN(c2ccnc3cc(Cl)ccc23)CC1)N/N=C/c1ccccn1 | – | – | > 100 | 0 | –
O=C(CCN1CCN(c2ccnc3cc(Cl)ccc23)CC1)N/N=C/c1cccc(Cl)c1 | > 100 | – | 7.7 | 97.3 | –
COc1ccc(OC)c(/C=N/NC(=O)CCN2CCN(c3ccnc4cc(Cl)ccc34)CC2)c1 | – | – | 8.2 | 37.4 | –
COc1cc(/C=N/NC(=O)CCN2CCN(c3ccnc4cc(Cl)ccc34)CC2)ccc1OC(C)=O | 15.8 | – | 0.13 | 0 | Ratio IC50 (Entamoeba histolytica [8]): 10; Ratio IC50 [9]: 121

Source: ChEMBL document CHEMBL3124919, “Design, synthesis and biological evaluation of 3-[4-(7-chloro-quinolin-4-yl)-piperazin-1-yl]-propionic acid hydrazones as antiprotozoal agents” (Eur J Med Chem, 2014)
